{"source": "patent US20150366189A1", "about": "“DRY MELT COATING PROCESS AND FORMULATION FOR VOLATILE COMPOUNDS” (AGROFRISH INC., priority 2013, published 2015)", "origin": "cited, not measured here", "conditions": "enclosed space", "data": [{"smiles": "CC1=CC1", "note": "[Experiment 1-MCP, 1-Methylcyclopropene]", "values": [{"measurement": "concentration threshold above which 1-MCP is flammable", "value": "> 13,300 ppm"}]}]}
